Data reported in the supplement of paper PMC10307832.

Tests used:
Assay in all cases: relative viability (nuclei count vs DMSO), 5 days (fraction); higher = more cells survive
[1] = compound: CC1CC(=O)N(C2=CN=C(N=C2N1C3CCCC3)NC4=C(C=C(C=C4)C(=O)NC5CCN(CC5)C)OC)C [NPK76-II-72-1] + CC(=O)c1c(C)c2cnc(Nc3ccc(N4CCNCC4)cn3)nc2n(C2CCCC2)c1=O [Palbociclib] (partner 0.5 µM)
In short: (§1)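 A single step with final 0.05% Triton X-100, 1% formaldehyde and 1 ug/ml Hoechst fixed the cells and stained nuclei 5 days after treatment. Lung cancer cell lines in 1536-well plates had been treated by pin tool the day after seeding with one drug alone or a fixed anchor-drug dose plus five library-drug doses (not always all listed) in √10 steps, and nuclei were counted on 4× images. Relative viability is the ratio of nuclei in treated wells to nuclei in vehicle wells, taken as the median of duplicate plates.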

[2] = compound: CC1CC(=O)N(C2=CN=C(N=C2N1C3CCCC3)NC4=C(C=C(C=C4)C(=O)NC5CCN(CC5)C)OC)C [NPK76-II-72-1] + CC1(C)CCC(c2ccc(Cl)cc2)=C(CN2CCN(c3ccc(C(=O)NS(=O)(=O)c4ccc(N[C@H](CCN5CCOCC5)CSc5ccccc5)c(S(=O)(=O)C(F)(F)F)c4)cc3)CC2)C1 [Navitoclax] (partner 0.5 µM)
In short: as §1

BI-2536 + Crizotinib = compound: CC[C@@H]1C(=O)N(C)c2cnc(Nc3ccc(C(=O)NC4CCN(C)CC4)cc3OC)nc2N1C1CCCC1 [BI-2536] + C[C@@H](Oc1cc(-c2cnn(C3CCNCC3)c2)cnc1N)c1c(Cl)ccc(F)c1Cl [Crizotinib] (partner 1 µM)
In short: as §1

BI-2536 + Linsitinib = compound: CC[C@@H]1C(=O)N(C)c2cnc(Nc3ccc(C(=O)NC4CCN(C)CC4)cc3OC)nc2N1C1CCCC1 [BI-2536] + C[C@]1(O)C[C@@H](c2nc(-c3ccc4ccc(-c5ccccc5)nc4c3)c3c(N)nccn32)C1 [Linsitinib] (partner 1 µM)
In short: as §1

Cell Line	relative viability ([1]; first compound 0.01 µM)	relative viability ([1]; first compound 0.03162 µM)	relative viability ([1]; first compound 0.1 µM)	relative viability ([1]; first compound 0.3162 µM)	relative viability ([1]; first compound 1 µM)	relative viability ([2]; first compound 0.01 µM)	relative viability ([2]; first compound 0.03162 µM)	relative viability ([2]; first compound 0.1 µM)	relative viability ([2]; first compound 0.3162 µM)	relative viability ([2]; first compound 1 µM)	relative viability (BI-2536 + Crizotinib; first compound 0.01 µM)	relative viability (BI-2536 + Crizotinib; first compound 0.03162 µM)	relative viability (BI-2536 + Crizotinib; first compound 0.1 µM)	relative viability (BI-2536 + Crizotinib; first compound 0.3162 µM)	relative viability (BI-2536 + Crizotinib; first compound 1 µM)	relative viability (BI-2536 + Linsitinib; first compound 0.01 µM)	relative viability (BI-2536 + Linsitinib; first compound 0.03162 µM)	relative viability (BI-2536 + Linsitinib; first compound 0.1 µM)	relative viability (BI-2536 + Linsitinib; first compound 0.3162 µM)	relative viability (BI-2536 + Linsitinib; first compound 1 µM)
NCI-H1734	0.328	0.348	0.345	0.321	0.384	0.861	0.896	0.823	0.766	0.866	0.644	0.548	0.35	0.204	0.158	0.947	0.896	0.859	0.238	0.228
NCI-H1755	0.453	0.441	0.464	0.453	0.479	0.942	1.01	0.953	0.989	1.02	0.893	0.751	0.594	0.315	0.25	1.03	0.992	0.971	0.455	0.272
NCI-H1792	0.698		0.672	0.662	0.68	0.599	0.553	0.606	0.624	0.726	1.04	0.815	1.01	0.417	0.17	0.585	0.634	0.495	0.444	0.131
NCI-H1915	0.508	0.606	0.529	0.502	0.536	0.749	0.795	0.786	0.736	0.826	0.931	0.549	0.549	0.116	0.108	1.12	1.05	1.03	0.625	0.143
NCI-H1944	0.335	0.35	0.305	0.301	0.376	0.997	1.02	1.05	0.971	1.06	1.14	1.3	1.21	0.184	0.147	1.35	1.27	1.17	1.02	0.283
NCI-H1975	0.548	0.548	0.593	0.416	0.676	0.956	1.05	1.04	0.993	1.26	1.12	0.504	0.595	0.185	0.166	0.948	0.861	1.03	0.192	0.147
NCI-H1993	0.629	0.647	0.616	0.563	0.682	1.05	0.969	0.884	0.706	1.01	0.945	0.906	0.621	0.57	0.693	0.709	0.637	0.579	0.528	0.611
NCI-H2009	0.178	0.195	0.213	0.262	0.2	1.11	1.28	1.1	1.14	1.17	0.962	0.696	0.287	0.191	0.16	1.21	1.18	1.14	0.394	0.294
